Assays:
[1] = target: T1, human EP1 receptor (Homo sapiens, UniProt P34995); experiment: Antagonist activity (SRE-Luciferase reporter activity) using cells expressing human EP1 receptor; type: cell-based; conditions: HEK293 cells stably expressing human EP1 receptor with SRE-Luciferase reporter; PGE2 final concentration 10 nM; 37° C. for 6 hours; read-out: IC50 value, antagonist activity measurement test using the cells expressing human EP1 receptor
T1 construct: expressed in transfected cells
T1 sequence (P34995 1-402): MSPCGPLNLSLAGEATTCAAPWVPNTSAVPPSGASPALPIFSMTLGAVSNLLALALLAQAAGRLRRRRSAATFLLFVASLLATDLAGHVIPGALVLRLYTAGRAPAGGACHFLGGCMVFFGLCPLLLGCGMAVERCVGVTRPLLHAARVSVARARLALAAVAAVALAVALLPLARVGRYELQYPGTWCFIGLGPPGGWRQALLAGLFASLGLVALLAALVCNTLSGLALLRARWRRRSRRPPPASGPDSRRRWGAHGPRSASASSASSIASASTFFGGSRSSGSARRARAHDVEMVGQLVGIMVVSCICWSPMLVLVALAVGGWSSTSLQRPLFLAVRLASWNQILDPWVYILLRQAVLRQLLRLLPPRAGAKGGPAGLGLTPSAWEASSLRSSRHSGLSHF
Experimental: (§1) Measurement of an Antagonist Activity by Using Cells Expressing Human EP1 Receptor
In order to investigate the EP1 receptor antagonist activity of the compounds of the present invention, a reporter activity was measured by using HEK293 cells in which human EP1 receptor has been stably expressed.
As a result of searching Refseq Database for prostaglandin E receptor, genetic information of human EP1 (NM_000955) receptor was obtained. Based on this sequence information, human EP1 receptor gene was cloned by PCR using human cDNA as a template and by other general method to give human EP1 receptor. Then, HEK293 in which the receptor is stably expressed was established, together with a reporter gene (SRE-Luciferase) in which serum responsible element (SRE) is added at the upstream region of firefly luciferase gene. The resulting cells were added to a 96 well plate (5×10^4 cells/well) and cultured for one day. To the plate, PGE2 (200 nM, final concentration 10 nM) and the test compound (in an amount of 1/20, 20× of the final concentration) were added to initiate the reaction. After allowing the reaction to proceed at 37° C. for 6 hours, the medium was aspirated off, added with a luminescent agent and the reporter activity was measured.

[2] = target: T1, human EP1 receptor; experiment: Antagonist activity (intracellular Ca2+ assay) using cells expressing human EP1 receptor; type: cell-based; conditions: HEK293 cells stably expressing human EP1 receptor; inhibition of increase in intracellular Ca2+ concentration by PGE2 (10 nM); Fura 2-AM
Experimental: as §1
In order to investigate the EP1 receptor antagonist activity of the compounds of the present invention, intracellular Ca^2+ was measured by using HEK293 cells in which human EP1 receptor has been stably expressed.
Cells expressing human EP1 receptor were suspended in an assay buffer to the concentration of 5×10^6 cells/ml, added with Puronic F-127 (final concentration 0.2%), and Fura 2-AM (final concentration 5 uM), followed by incubation at 37° C. for 30 minutes. After washing twice with the assay buffer, the cells were again suspended in the assay buffer to 1×10^6 cells/60 ul, and then transferred to a 96 well UV plate (1×10^6 cells/60 ul/well). Thereafter, by using a fluorescent chemical screening system (FDSS4000, Hamamatsu Photonics K.K.), intracellular Ca^2+ concentration was measured after adding 20 ul of each of the test compounds and PGE2 (5× of the final concentration for both). Ca^2+ concentration was measured by determining fluorescence intensity after irradiation with two excitation wavelengths, i.e., 340 and 380 nm.
Furthermore, EP1 antagonist activity was calculated as a ratio (%) of inhibiting increase in intracellular Ca^2+ concentration by PGE2 (10 nM).
Assay buffer: 20 mM HEPES/KOH (pH 7.4), 115 mM NaCl, 5.4 mM KCl, 0.8 mM MgCl2, 0.8 mM CaCl2, 13.8 mM D-glucose, 0.1% BSA

[3] = tested on: female SD rat; experiment: Micturition interval prolongation in an anesthetized rat-II; type: in vivo; conditions: urethane-anesthetized female SD rat; 0.2% acetic acid in physiological saline infused to the bladder; administered to the left femoral vein
Experimental: Micturition Interval Prolongation in an Anesthetized Rat-II
Activity of prolonging micturition interval in an anesthetized rat was determined with reference to the method established by Maggi, et al. (Eur. J. Pharmacol. 145, p. 105-112 (1988)). Specifically, a female SD rat was anesthetized with urethane and fixed in a flat position, and a catheter was inserted through an external urethral opening. Using a three-way stop cock, it was connected to a pressure transducer and a syringe pump. While infusing physiological saline including 0.2% acetic acid to the bladder at constant rate, cystometrogram was recorded. After confirming stabilized micturition interval, micturition threshold pressure and maximal voiding pressure, a solvent or the compound to be tested was administered to the left femoral vein and an activity of prolonging micturition interval was determined as an efficacy of the drug compound. Each group included five animals.

[4] = target: T1, human EP1 receptor; experiment: Receptor binding test ([3H]PGE2 binding inhibition) using cells expressing human EP1 receptor; conditions: membrane fraction of HEK293 cells stably expressing human EP1 receptor; [3H]PGE2 1 nM; 30° C. for 90 minutes; Ki=IC50/(1+[C]/Kd)
Experimental: Receptor Binding Test Using Cells Expressing Human EP1 Receptor
Inhibitory activity of the test compounds on binding of [^3H]PGE2 in HEK293 cells stably expressing human EP1 receptor was measured.
HEK293 cells which stably express human EP1 receptor were established by using the gene for human EP1 receptor, and then a membrane fraction was prepared therefrom. Thus-prepared membrane fraction was incubated at 30° C. for 90 minutes with a reaction solution (200 μL/well) which includes the test compound and [^3H]PGE2. Upon the completion of the reaction, the reaction solution was aspirated off under reduced pressure, and the [^3H]PGE2 bound to the membrane fraction was trapped by using Unifilter Plateg F/C (manufactured by Packard) and the bound radioactivity was counted with a liquid scintillator.
Kd value was obtained from a Scatchard plot. Non-specific binding was obtained from the binding in the presence of an excess amount (10 μM) of non-labeled PGE2. For the measurement of an inhibitory activity of the test compound on [^3H]PGE2 binding, [^3H]PGE2 (1 nM) and various concentrations of the test compound were added. Meanwhile, for all of the reactions, the buffer as described below was used.
Buffer;10 mM MES/NaOH (pH 6.0), 10 mM MgCl2, 1 mM EDTA, 0.1% BSA
Dissociation constant of the compounds, i.e., Ki, was obtained according to the following equation. […]

[5] = tested on: male SD rat; experiment: Micturition interval prolongation in an awaken rat-II; type: in vivo; conditions: cystitis induced by 0.3% acetic acid, intravenous administration, 60 minutes post- vs 30 minutes pre-administration
Description: Micturition Interval Prolongation in an Awaken Rat-II As a test animal, a male SD rat (Charles River Corporation, Japan) was used. The rat was anesthetized by isofluran inhalation (nitrous oxide:oxygen=7:3), and being laid on its stomach, it remained anesthetized by 2% isofluran inhalation. Then, an incision was made at the center region of the abdomen, and the bladder was exposed. A small incision was made to the vertex region of the bladder, and a polyethylene tube (PE-50: Becton Dickinson) was inserted to the bladder and fixed. One end of a cannula was subcutaneously directed to the backside of the animal, and after fixing the cannula to the abdomen wall, the incision was sealed. The cannula directed to the backside was connected to a seibel and the middle region was protected with a stainless spring. […] Then, through one end of the tube that had been inserted to the bladder, physiological saline warmed to 37° C. was injected at the rate of 3.0 mL/hr using a three-way stop cock, while the other end was connected to a pressure transducer and cystometrogram was recorded continuously with pressure amplification. The discharged urine was collected in a vessel placed on a digital balance and change in the urine weight was measured at the same time. […]

Row | IC50 [1] [nM] | IC50 [2] [nM] | SMILES | further results
1 | ≤ 100 |  | Cc1c(-c2ccccc2)nn(-c2nc(C(=O)O)cs2)c1-c1ccc(F)cc1 [Exp. 54] | 
2 | ≤ 100 |  | Cc1c(-c2ccccc2)nn(-c2nc(C(=O)O)cs2)c1-c1cc(F)cc(F)c1 [Exp. 80] | 
3 | 100 to 300 |  | Cc1c(-c2ccccc2)nn(-c2nc(C(=O)O)cs2)c1-c1cc(F)ccc1F [Exp. 88] | 
4 | 100 to 300 |  | Cc1c(-c2ccccc2)nn(-c2nc(C(=O)O)cs2)c1-c1cc(F)c(F)c(F)c1 [Exp. 90] | 
5 | 100 to 300 |  | Cc1c(-c2ccccc2)nn(-c2nc(C(=O)O)cs2)c1-c1cccs1 [Exp. 91] | 
6 | ≤ 100 |  | Cc1c(-c2ccccc2)nn(-c2nc(C(=O)O)cs2)c1-c1ccsc1 [Exp. 92] | 
7 | ≤ 100 | 300 to 1000 | Cc1c(-c2ccccc2)nn(-c2nc(C(=O)O)cs2)c1-c1ccco1 [Exp. 94] | 
8 | ≤ 100 | 300 to 1000 | Cc1c(-c2ccccc2)nn(-c2nc(C(=O)O)cs2)c1-c1ccoc1 [Exp. 95] | 
9 | ≤ 100 |  | Cc1c(-c2ccccc2)nn(-c2nc(C(=O)O)cs2)c1-c1cccc2cccnc12 [Exp. 105] | 
10 | ≤ 100 | ≤ 300 | Cc1c(-c2ccccc2)nn(-c2nc(C(=O)O)cs2)c1C1=CCCCO1 [Exp. 111] | 
11 | ≤ 100 | ≤ 300 | O=C(O)c1csc(-n2nc(-c3ccccc3)c3c2-c2ccccc2C3)n1 [Exp. 114] | 
12 | ≤ 100 | ≤ 300 | O=C(O)c1csc(-n2nc3c(c2-c2ccccc2)CCc2ccccc2-3)n1 [Exp. 116] | 
13 | ≤ 100 |  | O=C(O)c1csc(-n2nc(-c3ccccc3)c3oc4ccccc4c32)n1 [Exp. 117] | 
14 | 300 to 1000 |  | Cc1c(-c2ccccc2)nn(/C=C\c2nc(C(=O)O)cs2)c1-c1ccccc1 [Exp. 127] | 
15 | 100 to 300 |  | Cc1c(-c2ccccc2)nn(/C=C/c2nc(C(=O)O)cs2)c1-c1ccccc1 [Exp. 128] | 

More lines, now with the values behind:

Row | SMILES | IC50 [1] [nM] | IC50 [2] [nM] | further results
16 | Cc1c(-c2ccccc2)nn(Cc2nc(C(=O)O)cs2)c1-c1ccccc1 [Exp. 14, 2-{(4-Methyl-3,5-diphenyl-1H-pyrazol-1-yl)methyl}thiazole-4-carboxylic acid] | 300 to 1000 |  | 
17 | O=C(O)c1csc(-n2nc(-c3ccccc3O)cc2-c2ccccc2)n1 [Exp. 20] | 100 to 300 | 1000 to 3000 | 
18 | Cc1c(-c2ccccc2)nn(-c2nc(C(=O)O)cs2)c1-c1ccccc1 [Exp. 30] | ≤ 100 | 300 to 1000 | Micturition interval prolonging activity [3]: 25.8%; Ki [4]: ≤ 300 nM
19 | Nc1c(-c2ccccc2)nn(-c2nc(C(=O)O)cs2)c1-c1ccccc1 [Exp. 35] | ≤ 100 | ≤ 300 | Ki [4]: ≤ 300 nM; micturition volume [5]: increase in micturition volume; prolongation in micturition interval [5]: at least 30%
20 | O=C(O)c1csc(-n2nc(-c3ccccc3)c(F)c2-c2ccccc2)n1 [Exp. 36] | ≤ 100 | 300 to 1000 | 
21 | O=C(O)c1csc(-n2nc(-c3ccccc3)c(Cl)c2-c2ccccc2)n1 [Exp. 37] | ≤ 100 | 300 to 1000 | 
22 | O=C(O)c1csc(-n2nc(-c3ccccc3)c(Br)c2-c2ccccc2)n1 [Exp. 38] | ≤ 100 | ≤ 300 | 
23 | COc1ccccc1-c1c(C)c(-c2ccccc2)nn1-c1nc(C(=O)O)cs1 [Exp. 42] | 300 to 1000 |  | 
24 | Cc1c(-c2ccccc2)nn(-c2nc(C(=O)O)cs2)c1-c1cccc(F)c1 [Exp. 44] | ≤ 100 |  | 
25 | Cc1c(-c2ccccc2)nn(-c2nc(C(=O)O)cs2)c1-c1cccc(O)c1 [Exp. 48] | 100 to 300 |  | 

Source: patent US7960392B2, “Nitrogen-containing heterocyclic compounds” (Asahi Kasei Pharma Corporation, priority 2008, dated 2011)
